Some test systems named below: BT-549 breast; M14 melanoma; MDA-MB-435; T-47D breast; LOX IMVI melanoma; HL-60(TB) leukemia; NCI/ADR-RES ovarian; EKVX NSCLC.
What all share (assay): NCI-60 cell line screen, 48 h

Values joined by “and” are separate entries in the source; they are usually repeats but may differ in a detail not shown here. Equal entries are not always repeated.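 Grown in 96-well plates, cells were treated for 48 hours with each compound at five concentrations. Insufficient inhibition: endpoint recorded as highest concentration tested. The concentration for 50% growth inhibition is given as GI50. Definition used: TGI = concentration required for complete inhibition of growth.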

In the case of `COc1cc(/C=C/c2ccc3c(Br)cc(Br)c(O)c3n2)ccc1O`, the GI50 in the experiment on BT-549 breast is 2.61 µM; in the experiment on M14 melanoma, 1.61 µM; with MDA-MB-435, 3.38 µM; in the experiment on T-47D breast it was 2.13 µM; with LOX IMVI melanoma, 0.977 µM; in the experiment with HL-60(TB) leukemia, 0.46 µM. Moreover, the GI50 is 0.327 µM in the experiment on NCI/ADR-RES ovarian and 1.42 µM in the experiment with EKVX NSCLC. The TGI was determined as 13.6 µM in the experiment on BT-549 breast; 10.6 µM in the experiment on M14 melanoma; 19.6 µM in the experiment with MDA-MB-435; 14.7 µM with T-47D breast; 11.4 µM in the experiment on LOX IMVI melanoma; 2.92 µM with HL-60(TB) leukemia. The TGI was 1.49 µM with NCI/ADR-RES ovarian and 14.9 µM with EKVX NSCLC.

For `FC(F)(F)c1cccc(-c2nn3ncccc3c2-c2ccnc(Nc3ccc4c(c3)OCCO4)n2)c1`, the GI50 is 16.4 µM in the experiment with BT-549 breast; 17.6 µM in the experiment with M14 melanoma; 13.1 µM in the experiment on MDA-MB-435; 7.37 µM with T-47D breast; 10 µM in the experiment with LOX IMVI melanoma; 11.9 µM with HL-60(TB) leukemia. The GI50 was 8.96 µM with NCI/ADR-RES ovarian and 13.9 µM in the experiment on EKVX NSCLC. Further, the TGI in the experiment with BT-549 breast, in the experiment on M14 melanoma, with MDA-MB-435, in the experiment with T-47D breast, in the experiment on LOX IMVI melanoma and with HL-60(TB) leukemia was more than 25 µM each time. Also, the TGI in the experiment with NCI/ADR-RES ovarian and with EKVX NSCLC was more than 25 µM in each case.

Turning to `COc1cc(-c2nn(-c3cccc(NC(=O)CCN4CCN(Cc5ccccc5)CC4)c3)cc2-c2ccncc2)ccc1Cl`, the GI50 in the experiment with BT-549 breast is 2.27 µM; with M14 melanoma, 0.696 µM; in the experiment with MDA-MB-435, 0.237 µM; with T-47D breast, 2.76 µM; in the experiment on LOX IMVI melanoma it was 0.661 µM; with HL-60(TB) leukemia, 0.632 µM. Further, the GI50 with NCI/ADR-RES ovarian was 0.44 µM; in the experiment with EKVX NSCLC, 1.6 µM. The TGI in the experiment on BT-549 breast stood at 8.59 µM; in the experiment with M14 melanoma it was 2.21 µM; in the experiment on MDA-MB-435, 0.737 µM; with T-47D breast, 27.6 µM; in the experiment on LOX IMVI melanoma it was 1.98 µM; in the experiment with HL-60(TB) leukemia, 4.21 µM. Also, the TGI in the experiment on NCI/ADR-RES ovarian was found to be 2.28 µM; with EKVX NSCLC, 17.5 µM.

`CSc1ccc(C2=NN(C(C)=O)C(c3ccc(-c4ccc(Cl)cc4)o3)C2)cc1` (stereo not drawn): the GI50 with BT-549 breast is 76.4 µM; in the experiment with M14 melanoma it was 29.8 µM; in the experiment on MDA-MB-435, 29.2 µM; in the experiment on T-47D breast it was 17.9 µM; in the experiment on LOX IMVI melanoma, 32.8 µM; in the experiment on HL-60(TB) leukemia, 15.3 µM. Moreover, the GI50 with NCI/ADR-RES ovarian is 41.4 µM; in the experiment with EKVX NSCLC it was 50.2 µM. The TGI with BT-549 breast is more than 100 µM; in the experiment with M14 melanoma, more than 100 µM; with MDA-MB-435, more than 100 µM; in the experiment with T-47D breast, 79.6 µM; in the experiment on LOX IMVI melanoma, more than 100 µM; with HL-60(TB) leukemia, more than 100 µM. For the same molecule, the TGI with NCI/ADR-RES ovarian and with EKVX NSCLC was more than 100 µM each time.

Turning to `COc1ccc(/C=C(/C)[N+](=O)[O-])cc1OC`, the GI50 with BT-549 breast was 3.74 µM and 2.07 µM; in the experiment with M14 melanoma, 1.97 µM and 1.69 µM; in the experiment with MDA-MB-435, 2.17 µM and 2.1 µM; in the experiment with T-47D breast it was 1.54 µM and 1.37 µM; in the experiment with LOX IMVI melanoma, 1.6 µM and 1.15 µM; with HL-60(TB) leukemia, 2.42 µM and 2.47 µM. The GI50 with NCI/ADR-RES ovarian is 2.97 µM and 3.25 µM; in the experiment on EKVX NSCLC, 10.9 µM and 5.4 µM. The TGI in the experiment with BT-549 breast is 8.87 µM and 3.92 µM; in the experiment on M14 melanoma, 3.8 µM and 3.42 µM; in the experiment with MDA-MB-435, 5.55 µM and 5.29 µM; in the experiment with T-47D breast it was 3.29 µM and 3.23 µM; in the experiment on LOX IMVI melanoma, 3.21 µM and 3.55 µM; in the experiment with HL-60(TB) leukemia, 5.76 µM and 8.93 µM. Also, the TGI with NCI/ADR-RES ovarian is 9.77 µM and 13.9 µM; in the experiment on EKVX NSCLC it was 28.6 µM and 19.8 µM.

Take `CC1c2ccccc2CCN1c1ccc(CO)c(Cl)c1` (stereo not drawn): the GI50 was 17.2 µM in the experiment on BT-549 breast; 22.5 µM with M14 melanoma; 17.3 µM with MDA-MB-435; 0.053 µM in the experiment with T-47D breast; 22.2 µM with LOX IMVI melanoma; 21.3 µM in the experiment with HL-60(TB) leukemia. In the experiment with NCI/ADR-RES ovarian, the GI50 was 13.1 µM. Besides, the TGI worked out at 37.7 µM in the experiment on BT-549 breast; 58.2 µM in the experiment with M14 melanoma; 53.5 µM with MDA-MB-435; 0.311 µM with T-47D breast; 49.8 µM in the experiment with LOX IMVI melanoma; 70.2 µM in the experiment with HL-60(TB) leukemia. In addition, the TGI in the experiment on NCI/ADR-RES ovarian turned out to be 50.5 µM.

Regarding `O=C1C(OCCOc2ccccc2)=C(OCCOc2ccccc2)C(=O)c2ccccc21`, the GI50 in the experiment with BT-549 breast was more than 100 µM; in the experiment on MDA-MB-435 it was 35.4 µM; with T-47D breast, more than 100 µM; in the experiment with LOX IMVI melanoma it was 3.75 µM; with HL-60(TB) leukemia it was more than 100 µM; in the experiment with NCI/ADR-RES ovarian, 7.64 µM. The GI50 with EKVX NSCLC was more than 100 µM. Also, the TGI in the experiment on BT-549 breast, in the experiment with MDA-MB-435, in the experiment on T-47D breast, in the experiment on LOX IMVI melanoma, in the experiment on HL-60(TB) leukemia and in the experiment on NCI/ADR-RES ovarian was more than 100 µM in each case. For the same molecule, the TGI with EKVX NSCLC is more than 100 µM.

As for `Nc1n[nH]c2ccc([C@@H]3Nc4cc5c(cc4[C@H]4C6CCC(C6)[C@@H]34)C(=O)NC5)cc12` (stereo partly drawn), the GI50 is 0.32 µM in the experiment with BT-549 breast; 0.287 µM in the experiment with M14 melanoma; 0.126 µM with MDA-MB-435; 0.291 µM in the experiment on LOX IMVI melanoma; 0.282 µM with HL-60(TB) leukemia; 2.69 µM in the experiment with NCI/ADR-RES ovarian. The GI50 with EKVX NSCLC was 0.734 µM. Besides, the TGI with BT-549 breast was 1.71 µM; with M14 melanoma, more than 43.1 µM; in the experiment on MDA-MB-435, 0.49 µM; in the experiment with T-47D breast, more than 100 µM; with LOX IMVI melanoma, more than 100 µM; in the experiment on NCI/ADR-RES ovarian, more than 100 µM. The molecule further returned a TGI with EKVX NSCLC of more than 100 µM.

Turning to `CC(C)C[C@H](NC(=O)CCn1ccc2ccccc2c1=O)B(O)O`, the GI50 in the experiment with BT-549 breast is 2.21 µM; in the experiment on M14 melanoma, 4.23 µM; in the experiment with MDA-MB-435 it was 1.27 µM; in the experiment on T-47D breast it was 3.71 µM; in the experiment with LOX IMVI melanoma it was 2.11 µM; with HL-60(TB) leukemia, 2.69 µM. In the experiment with NCI/ADR-RES ovarian, the GI50 was 67.1 µM. The TGI in the experiment with BT-549 breast is 17.1 µM; with M14 melanoma, more than 100 µM; in the experiment with MDA-MB-435, 2.81 µM; in the experiment on T-47D breast, 29.3 µM; with LOX IMVI melanoma, 6.78 µM; in the experiment with HL-60(TB) leukemia, 49.5 µM. The molecule further displayed a TGI in the experiment on NCI/ADR-RES ovarian of more than 100 µM.

As to `NNc1nnc(-c2nnc(NN)o2)o1`, the TGI in the experiment on BT-549 breast, in the experiment on M14 melanoma, in the experiment on MDA-MB-435, with T-47D breast, in the experiment on HL-60(TB) leukemia and with NCI/ADR-RES ovarian was more than 10 µM in each case. This molecule also registered a TGI in the experiment on EKVX NSCLC of more than 10 µM.

The record behind these values is PubChem BioAssay (NCI).
